Holding throughout (format): cell-based, Sprague-Dawley (SD) rats
Test [1] deals with caspase 8. Put plainly: Caspase 8 activity ELISA in LPS-treated NSCs. Conditions: LPS (100 ng/ml) exposure, Day 7, vs LPS-treated NSCs without treatment, p<0.05.
The subject of test [2] is Bax. Put plainly: Real-time RT-PCR of Bax mRNA in IM-treated NSCs. The note with it: Day 3, Day 5, and Day 7 of IM-treated NSCs. The procedure: (§1) All animals used were treated in accordance with the Animal Care and Use Committee guideline at Taipei Veterans General Hospital. The protocol of the present study was also approved by the committee. Adult Sprague-Dawley (SD) rats (8 weeks old, 250 g) were anesthetized with intraperitoneal phenobarbital (Sigma, USA), and the location of their brains was mapped. Then, the brain […]. In brief, tissues from the hippocampus of adult rats were dissociated and incubated in Hank's balanced salt solution (HBSS) containing collagenase (78 units/ml) and hyaluronidase (38 units/ml) for 10 minutes at 37°C. The tissues were then mechanically dissected and placed in a trypsin solution (1.33 mg/ml) at 37°C for another 10 minutes. Dissociated cells were then centrifuged at 150 GG for 5 minutes. […] Viable cells were counted by trypan blue exclusion and plated as 5000 cells/200 µL per well in 96-well plates (Coming Inc, Acton, MA, USA) with no substrate pretreatment. […]
(§2) For real-time RT-PCR, the total RNA was extracted using the RNAeasy kit (Qiagen, Valencia, CA, USA). […] The quantification in the unknown samples was performed with LightCycler Relative Quantification Software version 3.3 (Roche Molecular Systems, Alameda, CA, USA). […]
On the technique in general: Quantitative PCR measures a nucleic acid by following its amplification.

Test [3] deals with TNF-α. Put plainly: TNF-α ELISA in LPS-treated NSCs. Conditions: vs only LPS-treated NSCs, IM 3 µM, p<0.05. In general terms: An ELISA detects its analyte on a solid surface through an enzyme-linked reagent.
The test system of test [4] is MAP2. The test can be described thus: Real-time RT-PCR of MAP2 mRNA in IM-treated NSCs. The note with it: Days 5 and Day 7 IM-treated NSCs vs non IM-treated NSCs, p<0.05. As to the method: as §1, §2
Test [5] deals with LPS-treated NSCs. The test can be described thus: MTT cell survival of LPS-treated NSCs. The note with it: vs the only LPS-treated NSCs; LPS 100 ng/ml.
Test [6] concerns IL-6. Put plainly: IL-6 ELISA in LPS-treated NSCs. Conditions: vs only LPS-treated NSCs, IM 3 µM, p<0.05.
Test [7] relates to Bcl-2. The test can be described thus: Real-time RT-PCR of Bcl-2 mRNA in IM-treated NSCs. The procedure:
as §1, §2

Test [8] concerns NSCs. Put plainly: Microdialysis with HPLC-ECD of 5-HT in the culture medium of IM-treated NSCs. Conditions: Day 7 and Day 14, IM-treated NSCs vs NSCs without IM treatment, p<0.05.
The test system of test [9] is LPS-treated NSCs. Put plainly: TUNEL assay of LPS-induced apoptosis in NSCs. The note with it: LPS-treated NSCs, vs LPS-treated NSCs without treatment.
The subject of test [10] is caspase 3. The test can be described thus: Caspase 3 activity ELISA in LPS-treated NSCs. Conditions: LPS (100 ng/ml) exposure, Day 7, vs LPS-treated NSCs without treatment, p<0.05.
Test [11] has as its system IL-1β. Put plainly: IL-1β ELISA in LPS-treated NSCs. The note with it: vs only LPS-treated NSCs, IM 3 µM, p<0.05.
Test [12] deals with NSCs. Put plainly: Immunofluorescent assay of MAP-2-positive cells in differentiating NSCs. Conditions: Day 7 culture of IM-treated NSCs vs non IM-treated NSCs, p<0.05.
Test [13] concerns NSCs. Put plainly: Immunofluorescent assay of serotonin (5-HT)-positive cells in differentiating NSCs. The note with it: Day 7 culture of IM-treated NSCs vs non IM-treated NSCs, p<0.05.

For the compound `CN(C)CCCN1c2ccccc2CCc2ccccc21` [IM, imipramine], the “apoptotic activities of caspase 8” value in test [1] is listed as “significantly decreased”. Besides, the “expression of Bax” value in test [2] is “not activated”. In addition, in test [3], the “TNF-α production in the LPS-treated NSCs” value is on record as “effectively reduces”. In addition, in test [4], the “mRNA levels of MAP2” value is on record as “significantly increased”. Moreover, the “cell survival rates in the LPS-treated NSCs” value in [5] is recorded as “significantly increases”. Moreover, the “IL-6 production in the LPS-treated NSCs” value in test [6] was “effectively reduces”. The “levels of Bcl-2 mRNA” value in test [7] (1, 3, and 5 µM IM, Day 7, vs Day 7 non-IM-treated NSCs) was “significantly increased”. The “mRNA levels of Bcl-2” value in test [7] (Days 5 and Day 7 IM-treated NSCs vs non IM-treated NSCs, p<0.05) is on record as “significantly increased”. For the same compound, in test [8], the “5-HT levels of the culture mediums” value was “significantly higher”. Moreover, in test [9], the “LPS-induced apoptosis (TUNEL assay)” value is on record as “protected against LPS-induced apoptosis”. Besides, the “apoptotic activities of caspase 3” value in test [10] was “significantly decreased”. Also, the “IL-1β production in the LPS-treated NSCs” value in test [11] is on record as “effectively reduces”. Further, the “percentages of MAP-2-positive cells” value in test [12] is “significantly increased”. In addition, the “percentages of serotonin (5-HT)-positive cells” value in test [13] is recorded as “significantly increased”.

The record behind these values is patent EP2077092A2, “System and Methods for Screening or Analyzing Targets” (Taipei Veterans General Hospital, priority 2007, dated 2009).
